{
  "source": "ChEMBL document CHEMBL1121640",
  "about": "“Analgesic narcotic antagonists. 6. 7 beta, 8 beta-Methano- and 7 beta, 8 beta-epoxydihydrocodeinone” (1981)",
  "key": {"Rattus norvegicus [1]": {"system": "Rattus norvegicus", "experiment": "Compound was tested for analgesic activity by tail-flick assay in rat after subcutaneous administration", "type": "functional", "details": "sc"}, "Mus musculus [2]": {"system": "Mus musculus", "experiment": "Compound was tested for analgesic activity by writhing assay in mouse after subcutaneous administration", "type": "functional", "details": "sc"}, "Rattus norvegicus [3]": {"system": "Rattus norvegicus", "experiment": "Compound was tested for analgesic activity by tail-flick assay in rat after subcutaneous administration; Inactive at 25 uM/Kg", "type": "functional, organism-based"}, "Rattus norvegicus [4]": {"system": "Rattus norvegicus", "experiment": "Compound was tested for narcotic antagonist activity determined using an intraperitoneal ED80 of morphine in rat tail-flick assay", "type": "functional", "details": "ip"}, "Rattus norvegicus [5]": {"system": "Rattus norvegicus", "experiment": "Compound was tested for analgesic activity by tail-flick assay in rat after subcutaneous administration; Inactive at 65 uM/Kg", "type": "functional, organism-based"}, "Mus musculus [6]": {"system": "Mus musculus", "experiment": "Compound was tested for analgesic activity by writhing assay in mouse after subcutaneous administration; Inactive at 32 uM/Kg", "type": "functional, organism-based"}, "Rattus norvegicus [7]": {"system": "Rattus norvegicus", "experiment": "Compound was tested for narcotic antagonist activity determined using an intraperitoneal ED80 of morphine in rat tail-flick assay; Inactive at 50 uM/Kg", "type": "functional, organism-based"}, "Rattus norvegicus [8]": {"system": "Rattus norvegicus", "experiment": "Compound was tested for narcotic antagonist activity determined using an intraperitoneal ED80 of morphine in rat tail-flick assay; Inactive at 55 uM/Kg", "type": "functional, organism-based"}, "Rattus norvegicus [9]": {"system": "Rattus norvegicus", "experiment": "Compound was tested for analgesic activity by tail-flick assay in rat after subcutaneous administration; Inactive at 32 uM/Kg", "type": "functional, organism-based"}, "Rattus norvegicus [10]": {"system": "Rattus norvegicus", "experiment": "Compound was tested for analgesic activity by tail-flick assay in rat after subcutaneous administration; Inactive at 30 uM/Kg", "type": "functional, organism-based"}, "Rattus norvegicus [11]": {"system": "Rattus norvegicus", "experiment": "Compound was tested for analgesic activity by tail-flick assay in rat after subcutaneous administration; Inactive at 3 uM/Kg", "type": "functional, organism-based"}, "Mus musculus [12]": {"system": "Mus musculus", "experiment": "Compound was tested for analgesic activity by writhing assay in mouse after subcutaneous administration; Inactive at 10 uM/Kg", "type": "functional, organism-based"}, "Rattus norvegicus [13]": {"system": "Rattus norvegicus", "experiment": "Compound was tested for narcotic antagonist activity determined using an intraperitoneal ED80 of morphine in rat tail-flick assay; Inactive at 25 uM/Kg", "type": "functional, organism-based"}},
  "note": "Activity calls are given as the source filed them. The calls are words filed in the database; no cut-off is given here.",
  "data": [
    {"smiles": "COc1ccc2c3c1O[C@H]1C(=O)CC[C@H]4[C@@H](C2)N(C)CC[C@]314", "note": "[HYDROCODONE]", "values": [
      {"measurement": "ED50", "setting": "Rattus norvegicus [1]", "result": 5.2, "unit": "µmol/kg"},
      {"measurement": "ED50", "setting": "Mus musculus [2]", "result": 2.4, "unit": "µmol/kg"}
    ]},
    {"smiles": "COc1ccc2c3c1O[C@H]1C(=O)CC(CCl)C4C(C2)N(C)CCC341", "note": "(stereo partly specified)", "values": [
      {"measurement": "ED50", "setting": "Rattus norvegicus [3]", "result": "inactive"},
      {"measurement": "ED50", "setting": "Mus musculus [2]", "result": 12.2, "unit": "µmol/kg"}
    ]},
    {"smiles": "Oc1ccc2c(c1)[C@@]13CCCC[C@@]1(O)[C@@H](C2)N(CC1CCC1)CC3", "note": "[BUTORPHANOL]", "values": [
      {"measurement": "ED50", "setting": "Rattus norvegicus [4]", "result": 2, "unit": "µmol/kg"},
      {"measurement": "ED50", "setting": "Mus musculus [2]", "result": 0.34, "unit": "µmol/kg"}
    ]},
    {"smiles": "COc1ccc2c3c1OC1[C@@H](O)[C@@H]4C[C@@H]4C4C(C2)N(C)CCC314", "note": "(stereo partly specified)", "values": [
      {"measurement": "ED50", "setting": "Rattus norvegicus [5]", "result": "inactive"},
      {"measurement": "ED50", "setting": "Mus musculus [2]", "result": 1.79, "unit": "µmol/kg"}
    ]},
    {"smiles": "COc1ccc2c3c1OC1C(=O)CC(SCCO)C4C(C2)N(CC2CC2)CCC314", "note": "(stereo unspecified)", "values": [
      {"measurement": "ED50", "setting": "Rattus norvegicus [4]", "result": "> 30", "unit": "µmol/kg"},
      {"measurement": "ED50", "setting": "Mus musculus [2]", "result": 3.4, "unit": "µmol/kg"}
    ]},
    {"smiles": "COc1ccc2c3c1OC1C(=O)[C@@H]4O[C@@H]4C4C(C2)N(C)CCC314", "note": "(stereo partly specified)", "values": [
      {"measurement": "ED50", "setting": "Rattus norvegicus [1]", "result": "> 30", "unit": "µmol/kg"},
      {"measurement": "ED50", "setting": "Mus musculus [6]", "result": "inactive"}
    ]},
    {"smiles": "COc1ccc2c3c1OC1C(=O)[C@@H]4C[C@@H]4C4C(C2)N(CC2CCC2)CCC314", "note": "(stereo partly specified)", "values": [
      {"measurement": "ED50", "setting": "Rattus norvegicus [7]", "result": "inactive"},
      {"measurement": "ED50", "setting": "Mus musculus [2]", "result": 12.4, "unit": "µmol/kg"}
    ]},
    {"smiles": "COc1ccc2c3c1OC1[C@@H](O)[C@@H]4C[C@@H]4C4C(C2)N(CC2CCC2)CCC314", "note": "(stereo partly specified)", "values": [
      {"measurement": "ED50", "setting": "Rattus norvegicus [8]", "result": "inactive"},
      {"measurement": "ED50", "setting": "Mus musculus [2]", "result": "> 55", "unit": "µmol/kg"}
    ]},
    {"smiles": "COc1ccc2c3c1O[C@H]1[C@@H](O)C=C[C@H]4[C@@H](C2)N(C)CC[C@@]341", "note": "[CODEINE]", "values": [
      {"measurement": "ED50", "setting": "Rattus norvegicus [1]", "result": 75.1, "unit": "µmol/kg"},
      {"measurement": "ED50", "setting": "Mus musculus [2]", "result": 10.3, "unit": "µmol/kg"}
    ]},
    {"smiles": "COc1ccc2c3c1OC1C(=O)[C@@H]4C[C@@H]4C4C(C2)N(C)CCC314", "note": "(stereo partly specified)", "values": [
      {"measurement": "ED50", "setting": "Rattus norvegicus [1]", "result": 4.7, "unit": "µmol/kg"},
      {"measurement": "ED50", "setting": "Mus musculus [2]", "result": 0.43, "unit": "µmol/kg"}
    ]},
    {"smiles": "COc1ccc2c3c1O[C@H]1C(=O)CC(SCCO)C4C(C2)N(C)CCC341", "note": "(stereo partly specified)", "values": [
      {"measurement": "ED50", "setting": "Rattus norvegicus [3]", "result": "inactive"},
      {"measurement": "ED50", "setting": "Mus musculus [2]", "result": "> 25", "unit": "µmol/kg"}
    ]},
    {"smiles": "COc1ccc2c3c1OC1[C@@H](O)[C@@H]4O[C@@H]4C4C(C2)N(C)CCC314", "note": "(stereo partly specified)", "values": [
      {"measurement": "ED50", "setting": "Mus musculus [6]", "result": "inactive"},
      {"measurement": "ED50", "setting": "Rattus norvegicus [9]", "result": "inactive"}
    ]},
    {"smiles": "COc1ccc2c3c1OC1C34CCN(C)C(C2)C4[C@H]2O[C@H]2[C@@]1(O)OC", "note": "(stereo partly specified)", "values": [
      {"measurement": "ED50", "setting": "Rattus norvegicus [10]", "result": "inactive"},
      {"measurement": "ED50", "setting": "Mus musculus [2]", "result": 18, "unit": "µmol/kg"}
    ]},
    {"smiles": "COc1ccc2c3c1OC1C(=O)C=CC4C(C2)N(C)CCC314", "note": "(stereo unspecified)", "values": [
      {"measurement": "ED50", "setting": "Rattus norvegicus [11]", "result": "inactive"},
      {"measurement": "ED50", "setting": "Mus musculus [12]", "result": "inactive"}
    ]},
    {"smiles": "CC(C)=CCN1CC[C@]2(C)c3cc(O)ccc3C[C@H]1[C@H]2C", "note": "[(+)-PENTAZOCINE]", "values": [
      {"measurement": "ED50", "setting": "Rattus norvegicus [4]", "result": 36.4, "unit": "µmol/kg"},
      {"measurement": "ED50", "setting": "Mus musculus [2]", "result": 13, "unit": "µmol/kg"}
    ]},
    {"smiles": "COc1ccc2c3c1O[C@H]1C(=O)C=CC4[C@@H](C2)N(CC2CCC2)CC[C@@]341", "note": "(stereo partly specified)", "values": [
      {"measurement": "ED50", "setting": "Rattus norvegicus [13]", "result": "inactive"},
      {"measurement": "ED50", "setting": "Mus musculus [2]", "result": 20.3, "unit": "µmol/kg"}
    ]},
    {"smiles": "COc1ccc2c3c1O[C@H]1[C@@H](O)CC[C@H]4[C@@H](C2)N(C)CC[C@@]341", "note": "[DIHYDROCODEINE]", "values": [
      {"measurement": "ED50", "setting": "Rattus norvegicus [1]", "result": "> 22", "unit": "µmol/kg"},
      {"measurement": "ED50", "setting": "Mus musculus [2]", "result": 3.8, "unit": "µmol/kg"}
    ]},
    {"smiles": "COc1ccc2c3c1OC1C(=O)[C@@H]4C[C@@H]4C4C(C2)N(CC2CC2)CCC314", "note": "(stereo partly specified)", "values": [
      {"measurement": "ED50", "setting": "Rattus norvegicus [4]", "result": 8.7, "unit": "µmol/kg"},
      {"measurement": "ED50", "setting": "Mus musculus [2]", "result": 9, "unit": "µmol/kg"}
    ]}
  ]
}
